Test results published in patent US10722530B2, “Methods of diagnosing and treating cancer” (CASE WESTERN RESERVE UNIVERSITY, priority 2016, dated 2020).

Assays:
[1] = test system: cleaved PARP or activated caspase 3 in HCT116 p53 KO cells; experiment: Western blot of apoptotic proteins; assay type: cell-based, human
Protocol: (§1) Western blots were performed as previously described Yan et al., Clinical Cancer Research. 2007; 13(5):1532-9. Twenty microgram of protein was loaded on SDS-polyacrylamide gel. The following antibodies were used to detect proteins on the membrane: α-Tubulin (Calbiochem); GAPDH (Santa Cruz Biotechnology); UDG (FL-313) (Santa Cruz Biotechnology); cleaved PARP (Asp214)(19F4) (Cell Signaling); cleaved caspase 3 (Cell Signaling); p53 (FL-393) (Santa Cruz Biotechnology); and p21 (Santa Cruz Biotechnology). For quantitative RT-PCR, total RNA from cells was extracted by using RNeasy Plus Mini Kit (Qiagen). cDNA synthesis was performed by using SuperScript III First Strand Kit (Life Technologies).

[2] = test system: cleaved PARP in HCT116 p53 WT cells; experiment: Western blot of apoptotic proteins; assay type: cell-based, human; settings: shSCR and shUDG, 25 nM 5-FdU 24 h
Protocol: as §1

DLD1 cells = experiment: DNA fiber assay (replication fork progression); assay type: cell-based, human; settings: 100 nM 5-FdU 24 h; for reduction of mean fiber length: vs untreated
Protocol: DNA fiber analysis was performed as described by Han et al. (J. Biol. (2015) 290:12370-8). Cells treated with 100 nM 5-FdU for 24 h were pulse-labeled with 100 μM chlorodeoxyuridine (CIdU) for 20 minutes, washed with PBS, and 25 μM Iododeoxyuridine (IdU) for 20 minutes. Cells were collected in PBS, and 2.5 μL of cell suspension was dropped on glass slide. 7.5 μL of lysis buffer (0.5% SDS, 200 mM Tris-HCl pH 7.4, 50 mM EDTA) was dropped on the cell suspension and lysis for 10 minutes. Slides were then tilted at 15° to spread the suspension and placed horizontally to allow air-dry. After drying, slides were fixed in 3:1 methanol:acetic acid for 15 minutes, washed with water, and placed at −20° C. overnight. Slides were then treated with 2.5 M HCl for 1 h, washed with PBS containing 0.1% Tween-20, washed twice with PBS, blocked in PBS containing 5% BSA and 0.1% Tween 20 for 20 minutes, and rinsed with PBS three times. After washing, 100 μL primary antibodies: mouse anti-BrdU/IdU (Becton Dickinson, 1:100) and rat anti-BrdU/CIdU (AbD Serotec, 1:400) diluted in PBS containing 5% BSA and 0.1% were added to incubate in a humid chamber for 4-6 h. After incubation, slides were washed with PBS three times, incubated with secondary fluorescent antibodies: sheep anti-mouse Alexa Fluor 488 (Life technologies) and donkey anti-rat Alexa Fluor 594 (Life technologies) diluted in PBS containing 5% BSA for 1 h. Slides were washed with PBS three times and mounted with Vectashield mounting medium. Image acquisition was performed on a Leica laser microscope. DNA fiber length was measured by using ImageJ software (NCl/NIH).

[3] = test system: HEC1A endometrial cancer cells; experiment: Colony survival assay, shSCR and shUDG cells; assay type: cell-based, human
Protocol: UDG knockdown was performed via shRNA transduction with validated clone from Sigma-Aldrich. The ID of UDG shRNA clone is NM_003362.2-656s21c1. A non-targeted scramble control shRNA clone (Sigma-Aldrich) was also used. Transfection of shRNA clones was performed according to manufacturer's specifications from Lipofectamine 2000 (Invitrogen). Lentiviral particles were produced via HEK293 cells, and targeted cells were infected and selected with puromycin. The stable UDG knockdown levels were verified for q-PCR and western blot analysis.
DLD1 (200 cells/well) or HEC1A (300 cells/well) cells were plated in 6-well culture dishes and allowed to adhere for 16 h. Cells were treated with drug for 24 h, gently washed twice with 1×PBS, and incubated with fresh media for at least 10 days to allow individual colonies to form. Colonies were stained with methylene blue, and only colonies containing ≥50 cells were counted. The percentage of survival was determined relative to untreated control averaged over 3 independent experiments.

H1299 = experiment: Clonogenic survival assay; assay type: cell-based; settings: Homo sapiens, NCI-H1299; H1299 (p53 null), 24 h treatment, colonies after at least 10 days
Protocol: (§4) Cancer cells (200-300 cells/well) were seeded in 6-well culture dishes and allowed to adhere overnight. For 5-FdU, cells were treated for 24 h, then gently washed with PBS, and incubated with fresh media for at least 10 days to allow individual colonies to form. […] After 10-18 days, the plates were stained with methylene blue. Colonies containing ≥50 cells were counted. The percentage of survival was determined relative to untreated control averaged over 3 independent experiments.

[4] = test system: cleaved PARP in DLD1 cells; experiment: Western blot of cleaved PARP; assay type: cell-based, human; settings: DLD1, 50 nM 5-FdU
Protocol: (§2) Western blots were performed as described in Yan et al. (Clin Cancer Res. (2007) 13:1532-39). Antibodies used were as follows: Anti-UDG (FL-313) (Santa Cruz Biotechnology), anti-Cleaved PARP (Asp214)(19F4) (Cell Signaling), and anti-α-Tubulin (Calbiochem).

[5] = test system: cleaved PARP in HEC1A cells; experiment: Western blot of cleaved PARP; assay type: cell-based, human; settings: HEC1A, 50 nM 5-FdU
Protocol: as §2

[6] = test system: p53 mutant or deficient lines; experiment: Clonogenic survival assay, panel of p53 mutant or deficient lines; settings: for resistance compared with p53 WT cells: cell lines with p53 mutation or deficiency vs p53 WT; for effect of UDG depletion on cytotoxicity: shUDG vs shSCR, p53 mutant or deficient cells
Excerpt: p53 or UDG knockdown was achieved via shRNA transduction. Lentiviral vectors LV-THM-shp53 (which also expresses a GFP reporter) or LV-Bleo-shp53 to perform p53 KD in WT HCT116 cells were obtained from Case Western Reserve University, Cleveland, Ohio Lentiviral vector targeting GFP (sh-GFP) was used as control. UDG shRNA vectors (shUDG: NM_003362.2-656s21c1, shUDG-2: NM_003362.2-758s21c1, and shUDG-3: NM_003362.2-893s21c1) were purchased from Sigma, and a scramble targeting shRNA vector (Sigma) was used as paired control. The lentiviral production and infection were performed as previously described. Cells stably infected with LV-THM-p53 were isolated by cell sorting on the basis of their GFP expression.
as §4

γH2AX foci in DLD1 cells = experiment: γH2AX foci immunofluorescence staining; assay type: cell-based, human; settings: 50 nM 5-FdU
Protocol: (§3) Cells cultured on glass coverslips were treated with 5-FdU in the presence or absence of 10 μM caspase inhibitor Q-VD-OPH (BioVision Inc). Cells were fixed in 3.7% formaldehyde for 10 minutes, blocked with PBS containing 10% FBS and 0.1% Triton X-100 for 20 minutes, washed with PBS three times, and incubated with primary anti-γH2AX antibody (Millipore, dilution: 1:150) in PBS containing 0.1% Triton X-100 at 4° C. overnight. The cells were then washed with PBS three times, incubated with secondary antibodies (Alexa Fluor 594, Life Technologies; dilution: 1:400) in PBS containing 0.1% Triton X-100 for 1 h, and washed with PBS three times. The slides were mounted with antifade solution with DAPI (Cell Signaling) and visualized on a Leica laser microscope.

[7] = test system: γH2AX foci in HEC1A cells; experiment: γH2AX foci immunofluorescence staining; assay type: cell-based, human; settings: 50 nM 5-FdU
Protocol: as §3

O=c1[nH]c(=O)n([C@H]2C[C@H](O)[C@@H](CO)O2)cc1F [5-FdU, 5-fluorodeoxyuridine]
induction of cleaved PARP or activated caspase 3 ([1]; p53 KO cells depleted of UDG, 48 h to 96 h): robustly induced
induction of cleaved PARP or activated caspase 3 ([1]; p53 KO cells expressing UDG, 25 nM 5-FdU 24 h): not detected
expression of cleaved PARP [2]: induced at 48 h
mean fiber length of nascent DNA strands (DLD1 cells; UDG depleted cells): 2.8 μm
reduction of mean fiber length (DLD1 cells; UDG depleted cells): 63%
mean fiber length of nascent DNA strands (DLD1 cells; shSCR-transfected cells): 5.7 μm
reduction of mean fiber length (DLD1 cells; shSCR-transfected cells): 23%
cell survival in shSCR-transfected cells ([3]; HEC1A shSCR, high concentrations): moderate loss of cell viability
effect of UDG depletion on drug sensitivity ([3]; HEC1A shUDG vs shSCR): highly sensitized
IC50 (H1299): 0.2696 ± 0.00073 µM
time of 5-FdU treatment until appearance of cleaved PARP [4]: > 24 h
time of 5-FdU treatment until appearance of cleaved PARP [5]: > 96 h
resistance compared with p53 WT cells [6]: significantly more resistant
resistance compared with p53 WT cells ([6]; listed as 5FdU): relatively more resistant
IC50 ([6]; read-out: IC50 values, p53 mutant or deficient lines): > 0.1 µM
effect of UDG depletion on cytotoxicity [6]: selectively sensitized
effect of UDG depletion on cytotoxicity ([6]; listed as 5FdU): overcame this resistance
resistance compared with p53 WT cells (HCT116 p53 KO cells; HCT116 p53 KO vs p53 WT): more resistant
effect of UDG depletion on cytotoxicity (HCT116 p53 KO cells; HCT116 p53 KO, shUDG vs shSCR): greatly enhanced cytotoxicity
γH2AX foci number and percentage of cells with over 10 foci over time (γH2AX foci in DLD1 cells; DLD1 UDG depleted): remained persistent
γH2AX foci number and percentage of cells with over 10 foci over time (γH2AX foci in DLD1 cells; DLD1 shSCR, after maximum at 12 h): gradually declined
γH2AX foci number and percentage of cells with over 10 foci over time ([7]; HEC1A UDG depleted): remained high
γH2AX foci number and percentage of cells with over 10 foci over time ([7]; HEC1A shSCR, after maximum at 48 h): reduced at 72 h and 96 h
